Results as given in patent US20200397686A1, “Methods of Reducing Burning or Stinging Sensation Attributed to Certain Compositions” (Monell Chemical Senses Center, priority 2018, published 2020).

System: burning sensation in the mouth produced by use of LISTERINE mouthwash
Assay: Reduction of perceived burning sensation after rinsing with LISTERINE mouthwash with or without sophorolipid (six subjects)
Assay type: in vivo, human
Details: five of six subjects; treated mouthwash (sophorolipid added) vs control mouthwash with no sophorolipid; rinse held in mouth 10-60 seconds before spitting; self-reported
Protocol: FIG. 1 is a graph that illustrates that a sophorolipid, having an oleic acid fatty acid tail, when added to mouthwash blocks or inhibits the burning sensation taste produced by use of LISTERINE® mouthwash. As discussed in Example 1 below, six subjects were instructed to rinse their mouths with either control (mouthwash with no sophorolipid) or the treated mouthwash (with 10 μM to 100 μM of the sophorolipid). Subjects reported the results as perceived burning sensation. Five of six subjects reported reductions of at least 50% in perceived burn produced by use of the treated mouthwash vs. use of the control.
Six subjects were involved in the study.
A final concentration of […] of the above noted sophorolipid was added to the mouthwash. The mouthwash with no sophorolipid added was the control. The subjects were told to rinse their mouths with either control or the treated mouthwash and hold it in their mouths for 10-60 seconds before spitting. Subjects were told to report the results as perceived burning sensation.
As reported in the graph of FIG. 1, five of six subjects reported reductions of at least 50% in perceived burn produced by use of the […].

## sophorolipid
  reduction in perceived burn: at least 50%
